The structures appear in SMILES notation. pEC50: −log10 of the molar value. A value given as a limit tells only on which side of the number the result lay.

229E Mpro, sequence (P0C6X1 2966-3267 limits assumed): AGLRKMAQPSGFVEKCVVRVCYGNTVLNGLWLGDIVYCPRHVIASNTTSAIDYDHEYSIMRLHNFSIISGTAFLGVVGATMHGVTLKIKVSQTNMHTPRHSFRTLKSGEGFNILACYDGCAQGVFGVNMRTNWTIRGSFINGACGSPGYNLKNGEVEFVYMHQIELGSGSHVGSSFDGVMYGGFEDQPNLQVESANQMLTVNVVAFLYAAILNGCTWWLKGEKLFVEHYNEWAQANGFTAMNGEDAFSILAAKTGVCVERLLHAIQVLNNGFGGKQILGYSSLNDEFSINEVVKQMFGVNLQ

The first test concerns the target 229E Mpro (Human coronavirus 229E (HCoV-229E), UniProt P0C6X1). In words: 229E Mpro activity. The settings on record: 229E Mpro EC50. Format: biochemical.
Method: Compounds are assayed using standard methods to assess compound activity and IC50. […] The assay buffer contains 20 mM of Tris-HCl (pH 7.3), 100 mM of NaCl, 1 mM of EDTA, 5mM of TCEP and 0.1% BSA.
A word on the pEC50: it is the negative decadic logarithm of the EC50, by convention in mol/L. As for `COc1cccc2[nH]c(C(=O)N3CC4(CC3C(=O)N[C@H](C#N)C[C@@H]3CCCNC3=O)CC(F)(F)C4)cc12` (single isomer, unassigned) [723 (Isomer 1)], the pEC50 was 4.52 to 5.00.

Still in this test, the particulars now being: read-out: 229E Mpro EC50.
For the compound `COc1cccc2[nH]c(C(=O)N[C@@H](CC(C)C)C(=O)NC(C#N)Cc3cc(=O)[nH]c4ccccc34)cc12` (mixture of isomers) [Compound 237, N-[(1S)-1-[[1-cyano-2-(2-oxo-1H-quinolin-4-yl)ethyl]carbamoyl]-3-methyl-butyl]-4-methoxy-1H-indole-2-carboxamide], the negative logarithm of the EC50 (pEC50) was less than 4.52.

As to `COc1cccc2[nH]c(C(=O)N[C@@H](CC(C)C)C(=O)NC(C#N)Cc3cc[nH]n3)cc12` (mixture of isomers) [Compound 241, N-[(1S)-1-[[1-cyano-2-(1H-pyrazol-3-yl)ethyl]carbamoyl]-3-methyl-butyl]-4-methoxy-1H-indole-2-carboxamide], the pEC50 was less than 4.52.

For the compound `COc1cccc2[nH]c(C(=O)N[C@@H](CC(C)C)C(=O)NC(C#N)Cc3n[nH]c4ccccc34)cc12` (mixture of isomers) [Compound 245, N-[(1S)-1-[[1-cyano-2-(1H-indazol-3-yl)ethyl]carbamoyl]-3-methyl-butyl]-4-methoxy-1H-indole-2-carboxamide], the pEC50 was less than 4.52.

As for `COc1cccc2[nH]c(C(=O)N[C@@H](CC(C)C)C(=O)NC(C#N)CC3CC(=O)Nc4ccccc43)cc12` (mixture of isomers) [Compound 249, N-[(1S)-1-[[1-cyano-2-(2-oxo-3,4-dihydro-1H-quinolin-4-yl)ethyl]carbamoyl]-3-methyl-butyl]-4-methoxy-1H-indole-2-carboxamide], the pEC50 was less than 4.52.

Turning to `COc1cccc2[nH]c(C(=O)N[C@@H](CC3CC3)C(=O)NC(C#N)CN3CCNC3=O)cc12` (mixture of isomers) [Compound 493, N-[(1S)-2-[[1-cyano-2-(2-oxoimidazolidin-1-yl)ethyl]amino]-1-(cyclopropylmethyl)-2-oxo-ethyl]-4-methoxy-1H-indole-2-carboxamide], the pEC50 was less than 4.52.

For `COc1cccc2[nH]c(C(=O)N[C@@H](CC(C)C)C(=O)N[C@@H](C[C@@H]3CCNC3=O)C(C#N)NC(C)(C)C)cc12` (single isomer, unassigned) [323 (Isomer 1)], the pEC50 is more than 5.70.

`COc1cccc2[nH]c(C(=O)N[C@@H](CC(C)C)C(=O)N[C@@H](C[C@@H]3CCNC3=O)C(C#N)NC(C)(C)C)cc12` (single isomer, unassigned) [323 (Isomer 2)]: the pEC50 is more than 5.70.

As to `COc1cccc2[nH]c(C(=O)N[C@@H](CC(C)C)C(=O)N[C@@H](C[C@@H]3CCNC3=O)C(C#N)N3CCCC3)cc12` (single isomer, unassigned) [331 (Isomer 1)], the pEC50 is more than 5.70.

For `COc1cccc2[nH]c(C(=O)N[C@@H](CC(C)C)C(=O)N[C@@H](C[C@@H]3CCNC3=O)C(C#N)N3CCCC3)cc12` (single isomer, unassigned) [331 (Isomer 2)], the pEC50 was more than 5.70.

Turning to `COc1cccc2[nH]c(C(=O)N3C[C@H](c4ccccc4)C[C@H]3C(=O)N[C@@H](C[C@@H]3CCNC3=O)C(O)C#N)cc12` (single isomer, unassigned) [345 (Isomer 1)], the pEC50 is more than 5.70.

As to `COc1cccc2[nH]c(C(=O)N3C[C@H](c4ccccc4)C[C@H]3C(=O)N[C@@H](C[C@@H]3CCNC3=O)C(O)C#N)cc12` (single isomer, unassigned) [345 (Isomer 2)], the pEC50 was more than 5.70.

With `CC(C)C[C@H](NC(=O)CC(C)(O)c1ccc(Cl)cc1)C(=O)N[C@H](C#N)C[C@@H]1CCNC1=O` (single isomer, unassigned) [365 (Isomer 1)], the pEC50 was 5.00 to 5.70.

Regarding `CC(C)C[C@H](NC(=O)CC(C)(O)c1ccc(Cl)cc1)C(=O)N[C@H](C#N)C[C@@H]1CCNC1=O` (single isomer, unassigned) [365 (Isomer 2)], the pEC50 is 5.00 to 5.70.

With `COc1cccc2[nH]c(C(=O)N3CC(C45CC(C4)C5)C[C@H]3C(=O)N[C@H](C#N)C[C@@H]3CCNC3=O)cc12` (single isomer, unassigned) [385 (Isomer 1)], the pEC50 was more than 5.70.

`COc1cccc2[nH]c(C(=O)N3CC(C45CC(C4)C5)C[C@H]3C(=O)N[C@H](C#N)C[C@@H]3CCNC3=O)cc12` (single isomer, unassigned) [385 (Isomer 2)]: the pEC50 is more than 5.70.

As to `COc1cccc2[nH]c(C(=O)N3CC4(CCCCC4)CC3C(=O)N[C@H](C#N)C[C@@H]3CCNC3=O)cc12` (single isomer, unassigned) [389A (Isomer 1)], the pEC50 was more than 5.70.

On to `COc1cccc2[nH]c(C(=O)N3CC(C)(C)C[C@H]3C(=O)N[C@H](C#N)C[C@@H]3CCNC3=O)cc12` (single isomer, unassigned) [395 (Isomer 1)], for which the pEC50 is more than 5.70.

On to `COc1cccc2[nH]c(C(=O)N3CC(C)(C)C[C@H]3C(=O)N[C@H](C#N)C[C@@H]3CCNC3=O)cc12` (single isomer, unassigned) [395 (Isomer 2)], for which the pEC50 is more than 5.70.

Turning to `COc1cccc2[nH]c(C(=O)N3CC4(CCC4)CC3C(=O)N[C@H](C#N)C[C@@H]3CCNC3=O)cc12` (single isomer, unassigned) [399A (Isomer 1)], the pEC50 is more than 5.70.

Regarding `COc1cccc2[nH]c(C(=O)N3CC4(CCCC4)C[C@H]3C(=O)N[C@H](C#N)C[C@@H]3CCNC3=O)cc12` (single isomer, unassigned) [401 (Isomer 1)], the pEC50 was more than 5.70.

With `COc1cccc2[nH]c(C(=O)N3CC4(CCCC4)C[C@H]3C(=O)N[C@H](C#N)C[C@@H]3CCNC3=O)cc12` (single isomer, unassigned) [401 (Isomer 2)], the pEC50 was 5.00 to 5.70.

For `N#C[C@H](C[C@@H]1CCNC1=O)NC(=O)[C@@H](CC1CC1)n1cccc(NCC(F)(F)F)c1=O` (single isomer, unassigned) [467 (Isomer 1)], the pEC50 is 5.00 to 5.70.

As for `N#C[C@H](C[C@@H]1CCNC1=O)NC(=O)[C@@H](CC1CC1)n1cccc(NCC(F)(F)F)c1=O` (single isomer, unassigned) [467 (Isomer 2)], the pEC50 was less than 4.52.

For the compound `CC(C)(C)OC(=O)N1CCCCC12CCN(C(CC1CC1)C(=O)N[C@H](C#N)C[C@@H]1CCNC1=O)C2=O` (single isomer, unassigned) [473 (Isomer 2)], the pEC50 was less than 4.52.

As for `COc1cccc2[nH]c(C(=O)N[C@@H](CC3CC3)C(=O)N[C@@]3(C#N)C[C@H]4CC[C@@H]3[C@H]3C(=O)NC(=O)[C@@H]43)cc12` (single isomer, unassigned) [489 (Isomer 1)], the pEC50 is less than 4.52.

Consider `COc1cccc2[nH]c(C(=O)N[C@@H](CC3CC3)C(=O)N[C@H](C#N)C[C@@H]3CCCNC3=O)cc12` (single isomer, unassigned) [491 (Isomer 1)], for which the negative logarithm of the EC50 (pEC50) is more than 5.70.

Take `COc1cccc2[nH]c(C(=O)N[C@@H](CC3CC3)C(=O)N[C@@H](C#N)C[C@@H]3CCCNC3=O)cc12` (single isomer, unassigned) [491 (Isomer 2)]: the negative logarithm of the EC50 (pEC50) was less than 4.52.

Consider `COc1cccc2[nH]c(C(=O)N[C@H](CC3CC3)C(=O)N[C@@H](C#N)C[C@@H]3CCCNC3=O)cc12` (single isomer, unassigned) [491 (Isomer 4)], for which the pEC50 is more than 5.70.

As to `N#C[C@]1(NC(=O)[C@H](CC2CC2)NC(=O)OCc2ccccc2)C[C@H]2CC[C@@H]1[C@H]1C(=O)NC(=O)[C@@H]21` (single isomer, unassigned) [495 (Isomer 1)], the pEC50 is less than 4.52.

As to `CC(C)(C)OC(=O)Nc1cccn([C@H](CC2CC2)C(=O)N[C@H](C#N)C[C@@H]2CCNC2=O)c1=O` (single isomer, unassigned) [505 (Isomer 1)], the pEC50 is less than 4.52.

In the case of `CC(C)(C)OC(=O)Nc1cccn([C@@H](CC2CC2)C(=O)N[C@H](C#N)C[C@@H]2CCNC2=O)c1=O` (single isomer, unassigned) [505 (Isomer 2)], the pEC50 was less than 4.52.

Regarding `COc1cccc2[nH]c(C(=O)N[C@@H](CC(C)C)C(=O)N[C@@H](CC3CCNC3=O)C(C#N)NCc3ccccc3)cc12` (single isomer, unassigned) [507 (Isomer 2.1)], the pEC50 was more than 5.70.

With `CCNC(C#N)[C@H](C[C@@H]1CCNC1=O)NC(=O)[C@H](CC(C)C)NC(=O)c1cc2c(OC)cccc2[nH]1` (single isomer, unassigned) [511 (Isomer 1)], the pEC50 is more than 5.70.

In the case of `CCNC(C#N)[C@H](C[C@@H]1CCNC1=O)NC(=O)[C@H](CC(C)C)NC(=O)c1cc2c(OC)cccc2[nH]1` (single isomer, unassigned) [511 (Isomer 2)], the pEC50 is more than 5.70.

For the compound `Cc1ccn(C(CC2CC2)C(=O)N[C@H](C#N)C[C@@H]2CCNC2=O)c(=O)c1NC(=O)OC(C)(C)C` (single isomer, unassigned) [591 (Isomer 2)], the negative logarithm of the EC50 (pEC50) is less than 4.52.

For the compound `COc1cccc2[nH]c(C(=O)N3CC4(CCCCC4)CC3C(=O)N[C@H](C#N)C[C@@H]3CCCNC3=O)cc12` (single isomer, unassigned) [603a (Isomer 1)], the pEC50 is more than 5.70.

Take `COc1cccc2[nH]c(C(=O)N[C@@H](CC(C)C)C(=O)N[C@@H](C[C@@H]3CCNC3=O)C(C#N)NCC(=O)O)cc12` (single isomer, unassigned) [653 (Isomer 1)]: the pEC50 was more than 5.70.

Regarding `COc1cccc2[nH]c(C(=O)N[C@@H](CC(C)C)C(=O)N[C@@H](C[C@@H]3CCNC3=O)C(C#N)NCC(=O)O)cc12` (single isomer, unassigned) [653 (Isomer 2)], the pEC50 is more than 5.70.

On to `COc1cccc2[nH]c(C(=O)N3CC4(CCC4)CC3C(=O)N[C@H](C#N)C[C@@H]3CCCNC3=O)cc12` (single isomer, unassigned) [719 (Isomer 2)], for which the pEC50 was more than 5.70.

Consider `N#C[C@H](C[C@@H]1CCCNC1=O)NC(=O)C1CC2(CCC2)CN1C(=O)c1cc2cccc(Cl)c2[nH]1` (single isomer, unassigned) [729 (Isomer 1)], for which the pEC50 was more than 5.70.

As for `N#C[C@H](C[C@@H]1CCCNC1=O)NC(=O)C1CC2(CCC2)CN1C(=O)c1cc2cccc(Cl)c2[nH]1` (single isomer, unassigned) [729 (Isomer 2)], the pEC50 is more than 5.70.

As for `COCCOCCOc1cccc2[nH]c(C(=O)NC(CC(C)(C)C)C(=O)NC(C#N)CC3CCCNC3=O)cc12` (single isomer, unassigned) [875 (Isomer 1)], the pEC50 is more than 5.70.

The record behind these values is patent US11524940B1, “Inhibitors of cysteine proteases and methods of use thereof” (priority 2020, dated 2022).
